What was measured:
Type in all cases: cell-based
Adenosine receptor A1 = biological target: T1, Adenosine receptor A1 (Homo sapiens, UniProt P30542); experiment: Displacement of [3H]DPCPX from human recombinant adenosine A1 receptor expressed in CHO cells after 60 mins by liquid scintillation counting
T1 sequence (P30542 whole entry): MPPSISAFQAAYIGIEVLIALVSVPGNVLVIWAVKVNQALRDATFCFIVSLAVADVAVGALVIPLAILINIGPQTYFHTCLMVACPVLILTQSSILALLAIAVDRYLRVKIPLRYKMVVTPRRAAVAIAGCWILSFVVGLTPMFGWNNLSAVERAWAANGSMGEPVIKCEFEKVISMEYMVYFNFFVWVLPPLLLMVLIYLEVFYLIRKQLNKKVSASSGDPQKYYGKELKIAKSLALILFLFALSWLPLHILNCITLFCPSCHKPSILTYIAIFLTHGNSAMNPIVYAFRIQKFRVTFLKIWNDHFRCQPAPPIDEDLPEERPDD

[1] = biological target: T2, Adenosine receptor A3 (Homo sapiens) (UniProt P0DMS8); experiment: Displacement of [125I]I-AB-MECA from human recombinant adenosine A3 receptor expressed in CHO cells at 10 uM after 60 mins by gamma scintillation counting
T2 sequence (whole entry): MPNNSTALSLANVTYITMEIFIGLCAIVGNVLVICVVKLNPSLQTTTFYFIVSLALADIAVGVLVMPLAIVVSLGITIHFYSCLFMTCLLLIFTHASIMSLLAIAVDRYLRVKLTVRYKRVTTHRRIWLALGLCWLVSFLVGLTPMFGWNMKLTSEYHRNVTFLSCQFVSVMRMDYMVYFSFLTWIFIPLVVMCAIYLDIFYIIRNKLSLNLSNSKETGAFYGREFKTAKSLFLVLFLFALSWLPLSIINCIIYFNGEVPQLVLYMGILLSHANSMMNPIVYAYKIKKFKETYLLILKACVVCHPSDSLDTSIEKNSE

Adenosine receptor A2a = Adenosine receptor A2a (Homo sapiens, UniProt P29274); experiment: Displacement of [3H]CGS21680 from human recombinant adenosine A2A receptor expressed in HEK293 cells after 60 mins by liquid scintillation counting
Adenosine receptor A3 = biological target: T3, Adenosine receptor A3 (Homo sapiens, UniProt P0DMS8); experiment: Displacement of [125I]I-AB-MECA from human recombinant adenosine A3 receptor expressed in CHO cells after 60 mins by gamma scintillation counting
T3 sequence (P0DMS8 whole entry): T2 sequence (whole entry)

[2] = biological target: T4, Adenosine receptor A1 (Homo sapiens) (UniProt P30542); experiment: Displacement of [3H]DPCPX from human recombinant adenosine A1 receptor expressed in CHO cells at 10 uM after 60 mins by liquid scintillation counting
T4 sequence (whole entry): T1 sequence (P30542 whole entry)

Adenosine receptor A2a, sequence (P29274 whole entry): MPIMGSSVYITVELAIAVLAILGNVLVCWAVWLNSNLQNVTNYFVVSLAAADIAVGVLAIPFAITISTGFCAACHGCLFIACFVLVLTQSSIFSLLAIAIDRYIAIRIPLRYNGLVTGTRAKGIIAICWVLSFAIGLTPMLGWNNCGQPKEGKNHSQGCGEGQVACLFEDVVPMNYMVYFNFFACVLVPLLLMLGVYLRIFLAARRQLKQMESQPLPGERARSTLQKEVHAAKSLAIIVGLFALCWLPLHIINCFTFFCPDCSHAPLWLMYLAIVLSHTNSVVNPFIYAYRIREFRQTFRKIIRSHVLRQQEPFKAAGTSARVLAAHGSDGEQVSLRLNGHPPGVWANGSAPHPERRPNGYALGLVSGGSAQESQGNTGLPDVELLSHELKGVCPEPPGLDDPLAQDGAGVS

| Structure (SMILES) | Ki (Adenosine receptor A1) | inhibition [1] | Ki (Adenosine receptor A2a) | Ki (Adenosine receptor A3) | inhibition [2] |
| --- | --- | --- | --- | --- | --- |
| COC(=O)COc1ccc(CCCn2ncc3c2nc(N)n2nc(-c4ccco4)nc32)cc1 | 4840 nM | 50% | 96 nM |  |  |
| C#CCCCCC(=O)NCCNC(=O)COc1ccc(CCCn2ncc3c2nc(N)n2nc(-c4ccco4)nc32)cc1 | 1100 nM |  | 75.4 nM | 1280 nM |  |
| N=c1ccc2c(-c3ccc(C(=O)NCCNC(=O)COc4ccc(CCCn5ncc6c5nc(N)n5nc(-c7ccco7)nc65)cc4)cc3C(=O)O)c3ccc(N)c(S(=O)(=O)O)c3oc-2c1S(=O)(=O)O |  | 4% | 111 nM |  | 20% |
| COc1ccc(CCCn2ncc3c2nc(N)n2nc(-c4ccco4)nc32)cc1 |  |  |  |  | 35% |
| Nc1nc2c(cnn2CCCc2ccc(OCC(=O)O)cc2)c2nc(-c3ccco3)nn12 | 1700 nM | 29% | 10.2 nM |  |  |
| Nc1nc2c(cnn2CCCc2ccc(O)cc2)c2nc(-c3ccco3)nn12 | 4440 nM |  |  |  |  |
| NCCNCCNC(=O)COc1ccc(CCCn2ncc3c2nc(N)n2nc(-c4ccco4)nc32)cc1 |  |  | 10.7 nM | 3290 nM | 20% |
| NCCNC(=O)COc1ccc(CCCn2ncc3c2nc(N)n2nc(-c4ccco4)nc32)cc1 | 1270 nM |  | 6.8 nM | 3970 nM |  |
| CN(C)c1ccc2c(-c3ccc(C(=O)NCCNC(=O)COc4ccc(CCCn5ncc6c5nc(N)n5nc(-c7ccco7)nc65)cc4)cc3C(=O)[O-])c3ccc(=[N+](C)C)cc-3oc2c1 |  | 24% | 357 nM |  | 7% |
| CC(=O)NCCn1cc(CCCCC(=O)NCCNC(=O)COc2ccc(CCCn3ncc4c3nc(N)n3nc(-c5ccco5)nc43)cc2)nn1 | 1700 nM |  | 220 nM | 302 nM |  |
| Nc1nc2c(cnn2CCCc2ccc(OCC(=O)NCCNCCNC(=O)CCCCCNC(=O)COc3ccc(/C=C/C4=[N+]5C(=Cc6ccc(-c7ccc[nH]7)n6[B-]5(F)F)C=C4)cc3)cc2)c2nc(-c3ccco3)nn12 |  | 28% | 15.1 nM |  |  |
| Nc1nc2c(cnn2CCCc2ccc(OCCCF)cc2)c2nc(-c3ccco3)nn12 | 1000 nM |  | 53.6 nM | 1320 nM |  |
